# Test results: PubChem BioAssay (NCI)
# “And” between values parts separate entries of the source, which are not always exact repeats. Equal values may be shown once.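 How tested: cells in 96-well plates exposed to compound for 48 hours at five concentrations. The concentration for 50% growth inhibition is given as GI50. TGI: concentration producing complete growth inhibition.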 Where a SMILES comes first, the peptide text is derived from it. The star is where a group is joined. Boc = CC(C)(C)OC(=O)*
# Tests used:
# Assay in all cases: NCI tumour cell line growth inhibition, 48 h
# [1] = tested on: PC-3 prostate
# [2] = tested on: MDA-MB-231 breast
# [3] = tested on: NCI-H226 lung
# [4] = tested on: NCI/ADR-RES ovarian
# [5] = tested on: HCT-15 colon
# [6] = tested on: HL-60(TB) leukemia
# [7] = tested on: HS 578T breast
# [8] = tested on: NCI-H522 lung
# [9] = tested on: A498 renal
# [10] = tested on: RXF 393 renal
SMILES,GI50 [1] [µM],TGI [1] [µM],GI50 [2],TGI [2] [µM],GI50 [3] [µM],TGI [3] [µM],GI50 [4] [µM],TGI [4] [µM],GI50 [5] [µM],TGI [5] [µM],GI50 [6],TGI [6],GI50 [7] [µM],TGI [7] [µM],GI50 [8],TGI [8] [µM],GI50 [9] [µM],TGI [9] [µM],TGI [10] [µM],GI50 [10] [µM]
O=C1c2cccc3cccc(c23)C(=O)N1CCCCCN1CCN(CCCCCOc2ccc(-c3nc4ccc(N5CCOCC5)cc4[nH]3)cc2)CC1,2.77,17.6,12.6 µM,> 20.4,7.24,30.2,8.7,> 60.2,2.62,8.63,0.372 µM,> 19.9 µM,21.8,45.4,> 49 µM,> 68.5,> 74.9,> 100,,
Cc1ccc(S(=O)OCc2c(C)c(C)c(COS(=O)c3ccc(C)cc3)c(C)c2C)cc1 (stereo unspecified),,,,,,> 100,,,,> 100,,> 100 µM,,,,> 100,,> 100,> 100,
Cc1cc(N(CCCNc2ccnc3cc(Cl)ccc23)Cc2ccc3c(c2)OCO3)nc(N2CCOCC2)n1,0.352,29.2,0.303 µM,1.37,,,0.692,23,0.311,11.7,,,0.288,18.6,0.185 µM,0.477,,,0.53,0.202
CC1(Br)Cc2ccccc2C1=O (stereo unspecified),,22.5,,22.9,,5.93,,> 100,,,0.495 µM,6.67 µM and 2.35 µM,,38.6,0.318 µM,1.41,,57.2,,
COc1cccc2c1C(=O)c1c(O)c3c(c(O)c1C2=O)C[C@@](O)(/C(C)=N/NC(=O)c1ccc(Cl)cc1)C[C@@H]3OC1CC(N)C(O)C(C)O1 (stereo partly specified),0.293,1.6,0.603 µM,2.77,0.187,0.897,4.6,44.3,1.02,12.6,,,0.369,2.52,,,0.129,0.625,,
CC(C)=CCc1cc2c(cc1O)OC[C@H]1c3cc4c(cc3O[C@@H]21)OCO4,,> 100,,> 100,,69.7,,76.1,,> 100,,71.9 µM,,75.5,,> 100,,,48.7,
COc1cc(/C=C\c2cc(OC)c(OC)c(OC)c2)cc(N/C=C\C(=O)c2cc(OC)c(OC)c(OC)c2)c1OC,2.89,> 100,4.01 µM,> 100,5.46,> 100,3.12,> 100,3.08,> 100,3.24 µM,42.2 µM,2.76,> 100,,,2.4,7.89,,
COC(=O)c1ccc(-c2c(C#N)[n+](=O)c3cc(Cl)c(Cl)cc3n2[O-])cc1,9.79,27.9,14.4 µM,33.5,25.7,70.6,23.2,75.6,11.1,91.2,,,25.7,92.2,4.12 µM,> 100,38.6,> 100,28,12.1
C=CCN1CCC23c4c5ccc(O)c4OC2C(=NN=C2CCC4(O)C6Cc7ccc(O)c8c7C4(CCN6CC=C)C2O8)CCC3(O)C1C5 (stereo unspecified),,,,,,> 100,,,,> 100,,,,,,72.1,,41.5,,
Cn1cc(-c2csc(-c3c[nH]c4ccc(Br)cc34)n2)c2cnccc21,2.02,4.15,2.34 µM,5.55,2.34,6,,,1.38,2.85,2.11 µM,7.91 µM,2.47,5,,,12.6,> 100,2.96,1.47
COc1ccc(/C(=C\C=C(C#N)C#N)Sc2nc3ccccc3s2)cc1,7.34,14.3,6.71 µM,14.4,11.2,40.9,3.69,12.6,,,,,31.2,> 50,14.6 µM,> 50,16.4,28.5,2.97,1.47
CCN(CC)CCSc1c2ccccc2nc2c(OC)ccc(OC)c12,,,,,,50.7,,,,,,17.7 µM,,,,19.8,,32.5,3.94,
C[Si](C)(C)/C(I)=C/CO,,,,,,39.3,,,,72.1,,,,,,34.5,,> 100,,
CCOC(=O)/C=C/c1ccc(C#Cc2ccccc2)cc1,> 100,> 100,> 100 µM,> 100,> 100,> 100,> 100,> 100,> 100,> 100,> 100 µM,> 100 µM,> 100,> 100,,,44.9,> 100,> 100,49.2
CCCCCCCN=C(N)c1ccc(N2CCN(c3ccc(C(N)=NCCCCCCC)cc3)CC2)cc1,0.268,> 20,0.165 µM,0.703,2.13,> 100,1.38,> 57.7,0.45,> 61.9,,,,,,0.0351,3.32,> 100,6.69,2.46
O=C(Nc1ccc(Cl)c(C(F)(F)F)c1)c1ccc(NC2=C(Cl)C(=O)N(Cc3ccccc3)C2=O)cc1,3.39,11.8,17.1 µM,31,23.1,53,,,,,2.58 µM,6.46 µM,2.43,5.67,2.18 µM,5.54,,,,
COC(=O)C(C)NC(=O)C(CCSC)NC(=O)C(Cc1ccccc1)NC(=O)OC(C)(C)C (stereo not drawn) (Boc-Phe-Met-Ala-OMe; configuration not given here),,> 100,33.2 µg/mL,> 100,,> 100,,> 100,,> 100,30.2 µg/mL,64.6 µg/mL and > 100 µM,,> 100,13.1 µg/mL,,,,,
Clc1nc(Cl)nc(Nc2cccc3ccccc23)n1,84.2,> 100,63.9 µM,> 100,> 100,> 100,> 100,> 100,96.5,> 100,> 100 µM,> 100 µM,> 100,> 100,,,> 100,> 100,,
